Like-named read-outs stand apart in the source and are kept apart here.
Assays:
integrin αvβ3 = biological target: T1, integrin αvβ3 (Homo sapiens, UniProt P05106+P06756); assay: Binding to integrin αvβ3 receptors ((125I) Echistatin displacement); conditions: for IC50: 0.05 nM (125I) Echistatin, 3-hour incubation, plate coated with 0.5 μg/ml integrin, read-out: αvβ3 IC50 ± SD
T1 construct: purchased Chemicon CC1020
Procedure: 96-well plates were subjected overnight to coating with 0.5 μg/ml of integrin αvβ3 (Chemicon, cat. CC1020). On the next day, the wells were washed and incubation was performed with 0.05 nM of (^125I) Echistatin (Amersham, cat. IM304) in the absence or presence of compounds according to the invention. After a 3-hour incubation and a series of washings, the integrin from each well bound to the radioactive substance was solubilised with NaOH 2N, and the radioactivity was then measured using a gamma counter. Non-specific binding, to be subtracted from all samples, was determined in the presence of Echistatin 1 μM.
(§1) The affinity of the compounds according to the present invention for vitronectin receptors was expressed as the IC50±SD value (nM) which is a parameter elaborated using “ALLFIT” software.

integrin αvβ5 = biological target: T2, integrin αvβ5 (Homo sapiens, UniProt P06756+P18084); assay: Binding to integrin αvβ5 receptors ((125I) Echistatin displacement); conditions: for IC50: 0.05 nM (125I) Echistatin, plate coated with 1 μg/ml integrin, read-out: αvβ5 IC50 ± SD
T2 construct: purchased Chemicon CC1022
T2 sequence (P06756 31-889 limits assumed): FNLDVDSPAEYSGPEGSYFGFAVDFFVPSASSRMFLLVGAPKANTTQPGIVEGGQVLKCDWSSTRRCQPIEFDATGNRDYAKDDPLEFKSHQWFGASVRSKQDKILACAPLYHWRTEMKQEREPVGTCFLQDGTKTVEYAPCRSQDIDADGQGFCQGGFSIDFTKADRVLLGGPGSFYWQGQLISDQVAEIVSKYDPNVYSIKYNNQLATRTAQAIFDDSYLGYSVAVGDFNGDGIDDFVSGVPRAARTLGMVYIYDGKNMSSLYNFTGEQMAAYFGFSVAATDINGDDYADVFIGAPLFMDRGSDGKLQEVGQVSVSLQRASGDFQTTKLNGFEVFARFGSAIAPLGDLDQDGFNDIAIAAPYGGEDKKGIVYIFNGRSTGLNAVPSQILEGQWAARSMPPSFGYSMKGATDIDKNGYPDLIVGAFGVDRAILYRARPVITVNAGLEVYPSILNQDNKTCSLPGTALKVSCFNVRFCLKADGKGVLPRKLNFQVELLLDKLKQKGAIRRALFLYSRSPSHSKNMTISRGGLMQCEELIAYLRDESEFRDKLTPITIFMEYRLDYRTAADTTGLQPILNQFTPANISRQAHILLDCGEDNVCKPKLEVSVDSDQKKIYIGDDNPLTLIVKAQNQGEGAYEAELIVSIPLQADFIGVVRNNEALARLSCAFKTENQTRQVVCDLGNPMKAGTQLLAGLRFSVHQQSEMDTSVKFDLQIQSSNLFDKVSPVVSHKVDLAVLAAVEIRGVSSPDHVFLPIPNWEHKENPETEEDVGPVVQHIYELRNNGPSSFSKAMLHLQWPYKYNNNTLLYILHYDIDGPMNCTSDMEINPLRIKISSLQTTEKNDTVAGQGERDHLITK
T2 sequence (P06756 891-1048 partner limits assumed): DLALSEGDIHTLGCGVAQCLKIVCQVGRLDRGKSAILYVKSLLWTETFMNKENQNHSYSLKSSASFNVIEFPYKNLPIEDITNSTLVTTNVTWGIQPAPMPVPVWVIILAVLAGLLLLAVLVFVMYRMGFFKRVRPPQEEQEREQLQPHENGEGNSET
T2 sequence (P18084 24-799): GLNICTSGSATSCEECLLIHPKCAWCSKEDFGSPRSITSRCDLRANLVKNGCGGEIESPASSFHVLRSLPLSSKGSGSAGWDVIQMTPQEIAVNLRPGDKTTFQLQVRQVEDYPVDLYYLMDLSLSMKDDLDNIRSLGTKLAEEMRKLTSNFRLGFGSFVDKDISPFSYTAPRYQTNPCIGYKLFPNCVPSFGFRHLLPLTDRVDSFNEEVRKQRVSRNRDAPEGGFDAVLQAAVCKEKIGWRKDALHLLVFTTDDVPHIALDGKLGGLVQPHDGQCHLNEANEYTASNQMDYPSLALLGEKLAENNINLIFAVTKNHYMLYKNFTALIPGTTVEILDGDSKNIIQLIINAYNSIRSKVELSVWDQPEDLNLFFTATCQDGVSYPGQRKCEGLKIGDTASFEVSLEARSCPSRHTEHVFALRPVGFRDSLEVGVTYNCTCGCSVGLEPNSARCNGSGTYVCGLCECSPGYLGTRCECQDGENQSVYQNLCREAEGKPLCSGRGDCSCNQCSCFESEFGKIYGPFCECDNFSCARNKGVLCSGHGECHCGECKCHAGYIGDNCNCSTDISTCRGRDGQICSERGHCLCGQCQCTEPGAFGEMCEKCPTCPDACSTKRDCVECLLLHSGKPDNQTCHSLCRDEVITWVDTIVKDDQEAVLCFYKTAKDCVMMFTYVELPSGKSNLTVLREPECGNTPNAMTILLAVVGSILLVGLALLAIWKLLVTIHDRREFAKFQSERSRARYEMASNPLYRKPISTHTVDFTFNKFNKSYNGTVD
Procedure: On the next day, the wells were washed and incubation was performed with 0.05 nM of(^125I) Echistatin (Amersham, cat. IM304) in the absence or presence of compounds according to the invention. The process then proceeded as described in the previous case.
as §1

[1] = test system: Human melanoma MeWo cells; assay: Cell adhesion assay on vitronectin, MeWo; type: cell-based; conditions: inhibition of cell adhesion to human vitronectin, 0.1 to 100 μM; read-out: MeWo IC50 ± SD
Procedure: Human melanoma MeWo cells from the American Type Culture Collection (ATCC) were kept in culture in complete Eagle Minimal Essential Medium (EMEM) containing 10% FCS, 2 mM L-glutamine and 50 μg/ml gentamicin.
(§2) 96-well plates were pretreated with 5 μg/ml of human vitronectin (Cal-biochem) for 12 hours at +4° C. BMEC or MeWo cells were detached with trypsin-EDTA, counted and plated on vitronectin substrate. The molecules were assayed at scalar concentrations ranging from 0.1 to 100 μM and co-incubated with the cells left to adhere. […] The adhereing cells were fixed with a 4% paraformaldehyde solution for 10 minutes at room temperature. The cells were then stained with a 1% toluidine blue solution for 10 minutes at room temperature. After staining, the cells were washed in double-distilled water, dried and solubilised with a 1% SDS solution. The cells were then quantified by means of absorbance reading on a Victor multilabel plate counter (Wal-lac) at 600 nm.
(§3) The evaluation parameter for the activity of the molecules was the value IC50±SD (μM).

[2] = test system: bovine microvascular endothelial cells (BMEC)
Procedure: Microvascular endothelial cells from bovine adrenal glands (bovine microvascular endothelial cells—BMEC) were isolated from animals that had just been sacrificed and were stored in ice up to their arrival in the laboratory. In sterile conditions, the glands were washed in a solution of betadine for 5 minutes and then in 2 liters of sterile PBS. The glands were then cut with a disposable sterile lancet into fragments of approximately 2 mm and transferred to polystyrene Falcon tubes containing PBS (30 ml per gland). After centrifuging at 600 rpm in a centrifuge cooled to +4° C., the supernatant was decanted. The pellet was resuspended 1:2 with a 0.12% solution of collagenase A (Boehringer Mannheim) and incubated at 37° C. for 2 hours under stirring. After subsequent filtration on filters (Sigma), first of 200, and then 100 mesh, the supernatant was added to a solution of DMEM containing 15% FBS to inhibit the action of the collagenase A. The solution was centrifuged at 1000 rpm at room temperature and the precipitate resuspended in DMEM medium containing 20% FBS, 50 μg/ml of bovine brain extract (BBE), 50 μg/ml of heparin (Sigma), 0.5% v/v gentamicin (Sigma), and 1% v/v L-glutamine. The cells were seeded on Petri dishes gelatinised with 1% gelatin (Sigma porcine gelatin). At confluence, the cells were characterised with endothelial markers as Factor VIII.

[3] = test system: SK-LMS-1 human leiomyosarcoma cells; assay: Cell adhesion assay on vitronectin, SK-LMS-1; type: cell-based; conditions: inhibition of cell adhesion to human vitronectin, 0.1 to 100 μM; read-out: SK-LMS1 IC50 ± SD
Procedure: SK-LMS-1 human leiomyosarcoma cells (ATCC) were grown in EMEM supplemented with 10% FCS, 2 mM L-glutamine and 50 μg/ml gentamicin.
as §2, §3

T1 sequence (P06756 31-889 limits assumed): as the sequence (P06756 31-889 limits assumed) above
T1 sequence (P06756 891-1048 partner limits assumed): as the sequence (P06756 891-1048 partner limits assumed) above
T1 sequence (P05106 27-788): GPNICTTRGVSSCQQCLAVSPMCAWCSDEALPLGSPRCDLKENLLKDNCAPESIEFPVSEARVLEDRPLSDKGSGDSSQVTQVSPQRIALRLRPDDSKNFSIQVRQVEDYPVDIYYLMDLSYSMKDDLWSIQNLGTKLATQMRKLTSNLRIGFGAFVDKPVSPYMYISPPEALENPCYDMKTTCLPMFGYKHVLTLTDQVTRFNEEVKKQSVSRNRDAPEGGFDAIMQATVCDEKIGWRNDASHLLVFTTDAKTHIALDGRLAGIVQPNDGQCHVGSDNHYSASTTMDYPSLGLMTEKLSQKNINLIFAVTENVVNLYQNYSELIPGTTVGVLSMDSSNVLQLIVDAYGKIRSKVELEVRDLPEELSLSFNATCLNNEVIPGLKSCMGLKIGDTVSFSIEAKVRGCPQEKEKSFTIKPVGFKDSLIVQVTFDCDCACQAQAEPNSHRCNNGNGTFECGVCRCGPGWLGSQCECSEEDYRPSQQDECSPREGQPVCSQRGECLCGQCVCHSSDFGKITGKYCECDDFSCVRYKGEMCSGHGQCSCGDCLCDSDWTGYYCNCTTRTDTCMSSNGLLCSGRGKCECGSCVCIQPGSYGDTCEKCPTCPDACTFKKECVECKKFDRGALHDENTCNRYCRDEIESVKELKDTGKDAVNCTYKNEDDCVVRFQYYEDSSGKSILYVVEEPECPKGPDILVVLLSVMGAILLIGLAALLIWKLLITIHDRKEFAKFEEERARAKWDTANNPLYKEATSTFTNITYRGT

c(Arg-Gly-Asp-D-Phe-(R,S)-Dfm-Phe) [ST1932]
IC50 (integrin αvβ3): 0.332 ± 0.101 µM
IC50 (integrin αvβ5): 0.0055 ± 0.0008 µM
IC50 [1]: 13.9 ± 4.3 µM
IC50 ([2]; read-out: BMEC IC50 ± SD, inhibition of cell adhesion to human vitronectin, 0.1 to 100 μM): 14.2 ± 1 µM

CC(C)[C@@H]1NC(=O)[C@@H](Cc2ccccc2)NC(=O)C(CC(=O)O)(C(F)(F)F)NC(=O)CNC(=O)[C@H](CCCNC(=N)N)NC1=O (single isomer, unassigned) [ST2190, c(Arg-Gly-(R or S)-Tfm-Asp-D-Phe-Val)]
IC50 (integrin αvβ3): > 10 µM
IC50 (integrin αvβ5): > 10 µM

CC(C)[C@@H]1NC(=O)C(Cc2ccccc2)(C(F)(F)F)NC(=O)[C@H](CC(=O)O)NC(=O)CNC(=O)[C@H](CCCNC(=N)N)NC1=O (single isomer, unassigned) [ST2191, c(Arg-Gly-Asp-(R o S)-Tfm-Phe-Val)]
IC50 (integrin αvβ3): 0.237 ± 0.064 µM
IC50 (integrin αvβ5): 0.01 ± 0.0019 µM
IC50 [1]: 21.9 ± 2.5 µM
IC50 [2]: 18.8 ± 4.4 µM

N=C(N)NCCC[C@@H]1NC(=O)C(Cc2ccccc2)(C(F)(F)F)NC(=O)[C@@H](Cc2ccccc2)NC(=O)[C@H](CC(=O)O)NC(=O)CNC1=O (single isomer, unassigned) [ST1930, C(Arg-Gly-Asp-D-Phe-(R or S)-Tfm-Phe)]
IC50 [1]: 6.9 ± 1.3 µM
IC50 [2]: 8.9 ± 0.4 µM

CC(C)[C@@H]1NC(=O)[C@@H](Cc2ccccc2)NC(=O)C(CC(=O)O)(C(F)(F)F)NC(=O)CNC(=O)[C@H](CCCNC(=N)N)NC1=O (single isomer, unassigned) [ST2189, c(Arg-Gly-(R or S)-Tfm-Asp-D-Phe-Val)]
IC50 (integrin αvβ3): > 10 µM
IC50 (integrin αvβ5): > 10 µM

CC(C)C1(C(F)(F)F)NC(=O)[C@@H](Cc2ccccc2)NC(=O)[C@H](CC(=O)O)NC(=O)CNC(=O)[C@H](CCCNC(=N)N)NC1=O (single isomer, unassigned) [ST2409, c(Arg-Gly-Asp-D-Phe-(R or S)-Tfm-Val)]
IC50 [3]: 15.9 ± 1.6 µM
IC50 [2]: 12.5 ± 1.5 µM

CC(C)[C@@H]1NC(=O)C(Cc2ccccc2)(C(F)(F)F)NC(=O)[C@H](CC(=O)O)NC(=O)CNC(=O)[C@H](CCCNC(=N)N)NC1=O (single isomer, unassigned) [ST2192, c(Arg-Gly-Asp-(R o S)-Tfm-Phe-Val)]
IC50 (integrin αvβ3): 1.02 ± 0.348 µM
IC50 (integrin αvβ5): 0.0727 ± 0.0038 µM
IC50 [2]: > 100 µM

CC(C)C1(C(F)(F)F)NC(=O)[C@@H](Cc2ccccc2)NC(=O)[C@H](CC(=O)O)NC(=O)CNC(=O)[C@H](CCCNC(=N)N)NC1=O (single isomer, unassigned) [ST2410, c(Arg-Gly-Asp-D-Phe-(R or S)-Tfm-Val)]
IC50 [3]: > 100 µM
IC50 [2]: 77.6 ± 7.2 µM

CN1C(=O)[C@@H](Cc2ccccc2)NC(=O)[C@H](CC(=O)O)NC(=O)CNC(=O)[C@H](CCCNC(=N)N)NC(=O)C1(Cc1ccccc1)C(F)(F)F (single isomer, unassigned) [ST2552, c(Arg-Gly-Asp-D-Phe-(R or S)—N-Me-Tfm-Phe)]
binding affinity for vitronectine receptor αvβ3 (in words) (integrin αvβ3): high binding affinity
binding affinity for vitronectine receptor αvβ5 (in words) (integrin αvβ5): high binding affinity
IC50 [1]: 0.33 ± 0.05 µM
IC50 [2]: > 100 µM

— patent US20060205637A1, “Fluoro-alkyl-cyclopeptide derivatives having anti-integrin activity” (Sigma-Tau Industrie Farmaceutiche Riunite S.p.A., priority 2002, published 2006)
